Measurements as given in ChEMBL document CHEMBL1201862, “PubChem BioAssay data set” (2004).
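Five concentrations, 48 hours, 96-well plates. At the GI50, growth is halved.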 Calls of active or inactive are those of the source. Cut-off read from the data, not from the text of the source: active = GI50 up to about 1.1 µM and inactive = higher.

How the values were obtained:
Assay in all cases: NCI tumour cell line growth inhibition, 48 h
NCI/ADR-RES = system: NCI/ADR-RES
LOX IMVI = system: LOX IMVI
HCC 2998 = system: HCC 2998
MDA-MB-231 = system: MDA-MB-231
HOP-92 = system: HOP-92
SF-295 = system: SF-295
SNB-75 = system: SNB-75
M14 = system: M14
OVCAR-5 = system: OVCAR-5
TK-10 = system: TK-10
RXF 393 = system: RXF 393
SK-MEL-2 = system: SK-MEL-2
SK-OV-3 = system: SK-OV-3
U-251 = system: U-251
A549 = system: A549
SF-539 = system: SF-539
UACC-62 = system: UACC-62
COLO 205 = system: COLO 205
NCI-H226 = system: NCI-H226

Measured: GI50

C=C1c2cc3c(cc2CC12Cc1cc4c(cc1C2=O)CCC4)CCC3 (stereo not given)
inactive: NCI/ADR-RES > 100 µM | LOX IMVI > 100 µM | HCC 2998 > 100 µM | MDA-MB-231 > 100 µM | HOP-92 > 100 µM | SF-295 > 100 µM | SNB-75 > 100 µM | M14 > 100 µM | OVCAR-5 > 100 µM | TK-10 > 100 µM | RXF 393 > 100 µM | SK-MEL-2 > 100 µM | SK-OV-3 > 100 µM | U-251 > 100 µM | A549 > 100 µM | SF-539 > 100 µM

COc1ccccc1C1c2cc3c(cc2OC(N2CCOCC2)C1C)OCO3 (stereo not given)
inactive: NCI/ADR-RES 22.9 µM | UACC-62 14.7 µM | LOX IMVI 16.7 µM | SF-295 13.5 µM | M14 17.5 µM | OVCAR-5 16.4 µM | TK-10 22 µM | COLO 205 > 10 µM | SK-MEL-2 17.7 µM | A549 17.3 µM | SF-539 14.2 µM

O=[N+]([O-])c1ccc2c(c1)S(=O)(=O)N1Cc3ccccc3CCN21
inactive: NCI/ADR-RES > 100 µM | UACC-62 > 100 µM | LOX IMVI > 100 µM | HCC 2998 > 100 µM | MDA-MB-231 > 100 µM | HOP-92 62.2 µM | SF-295 27.1 µM | SNB-75 59.3 µM | M14 > 100 µM | OVCAR-5 > 100 µM | TK-10 > 100 µM | RXF 393 > 100 µM | COLO 205 > 100 µM | SK-MEL-2 > 100 µM | U-251 45.1 µM | NCI-H226 > 100 µM | A549 > 100 µM | SF-539 54.5 µM

CCO[C@]12CCC[C@H]1[C@@H]1C(=O)c3ccccc3C(=O)C1=C(C)O2
inactive: NCI/ADR-RES > 100 µM | UACC-62 > 100 µM | LOX IMVI 20.8 µM | HCC 2998 > 100 µM | MDA-MB-231 > 100 µM | HOP-92 44.9 µM | SF-295 81.1 µM | SNB-75 58.6 µM | M14 34.3 µM | OVCAR-5 > 100 µM | TK-10 > 100 µM | RXF 393 20.5 µM | COLO 205 > 100 µM | SK-MEL-2 > 100 µM | SK-OV-3 > 100 µM | U-251 36.3 µM | A549 > 100 µM | SF-539 29.4 µM

O=C1c2ccoc2C(=O)c2oc(=O)ccc21
inactive: UACC-62 17.1 µM | LOX IMVI 2.88 µM | HCC 2998 > 45.3 µM | HOP-92 21.6 µM | SF-295 17.5 µM | SNB-75 6.41 µM | M14 7.82 µM | OVCAR-5 19.7 µM | TK-10 > 45.1 µM | RXF 393 5.86 µM | COLO 205 > 41.2 µM | SK-MEL-2 6.59 µM | SK-OV-3 30.1 µM | U-251 8.15 µM | NCI-H226 > 42.6 µM | A549 20.3 µM | SF-539 3.45 µM

CCC12C=CCN3CC[C@]4(C(=C(C(=O)OC)[C@@H]1Nc1ccn(C5OC(COC(C)=O)C(OC(C)=O)C5OC(C)=O)c(=O)n1)Nc1ccccc14)C32 (stereo not given in full)
inactive: UACC-62 3.47 µM | LOX IMVI 4.26 µM | HCC 2998 4.3 µM | HOP-92 4.31 µM | SF-295 4.72 µM | SNB-75 3.95 µM | M14 4.18 µM | OVCAR-5 1.82 µM | TK-10 4.93 µM | RXF 393 3.12 µM | COLO 205 4.59 µM | SK-MEL-2 2.39 µM | SK-OV-3 4.93 µM | U-251 4.27 µM | NCI-H226 4.47 µM | A549 5.9 µM | SF-539 5 µM

CC(C)(Oc1ccc(/C=C/C(=O)c2ccc(Cl)cc2)cc1)C(=O)Nc1c(Cl)cccc1Cl
inactive: UACC-62 17.3 µM | LOX IMVI 16 µM | HCC 2998 25.4 µM | HOP-92 15.7 µM | SF-295 25.8 µM | SNB-75 29.4 µM | M14 17.5 µM | OVCAR-5 41.1 µM | TK-10 59.4 µM | RXF 393 20.6 µM | COLO 205 17.8 µM | SK-MEL-2 42.3 µM | SK-OV-3 34 µM | U-251 12.5 µM | NCI-H226 25.5 µM | A549 31.4 µM | SF-539 14.6 µM

CC(C)C(=O)NS(=O)(=O)c1ccccc1
inactive: UACC-62 > 100 µM | LOX IMVI > 100 µM | HCC 2998 > 100 µM | HOP-92 > 100 µM | SF-295 > 100 µM | SNB-75 > 100 µM | M14 > 100 µM | OVCAR-5 > 100 µM | TK-10 > 100 µM | RXF 393 > 100 µM | COLO 205 > 100 µM | SK-MEL-2 > 100 µM | SK-OV-3 > 100 µM | U-251 > 100 µM | NCI-H226 > 100 µM | A549 > 100 µM | SF-539 > 100 µM

COc1cc(C(c2cc3c(cc2O)OCO3)N2CCCC2)cc(OC)c1OC (stereo not given)
inactive: NCI/ADR-RES 17.3 µM | UACC-62 15.8 µM | LOX IMVI 14.6 µM | HCC 2998 28.5 µM | MDA-MB-231 15.9 µM | HOP-92 7.96 µM | SF-295 18.6 µM | SNB-75 16.2 µM | M14 24.5 µM | OVCAR-5 25.9 µM | TK-10 20.2 µM | COLO 205 11.7 µM | SK-MEL-2 19.6 µM | SK-OV-3 30.3 µM | U-251 16.9 µM | NCI-H226 17.4 µM | A549 20.4 µM

CCCN(CCC)C(=O)c1c(N2CCN(C)CC2)c2cccnc2n2c(C)cnc12
inactive: NCI/ADR-RES > 100 µM | UACC-62 > 100 µM | LOX IMVI > 100 µM | MDA-MB-231 > 100 µM | HOP-92 > 100 µM | SF-295 > 100 µM | SNB-75 > 100 µM | M14 > 100 µM | OVCAR-5 > 100 µM | TK-10 > 100 µM | RXF 393 24.8 µM | COLO 205 > 100 µM | SK-MEL-2 > 100 µM | U-251 > 100 µM | NCI-H226 > 100 µM | A549 > 100 µM | SF-539 > 100 µM

N#CCc1nc(O)c2ccccc2n1
inactive: NCI/ADR-RES > 100 µM | LOX IMVI 56.4 µM | HCC 2998 > 100 µM | MDA-MB-231 > 100 µM | HOP-92 > 100 µM | SF-295 > 100 µM | SNB-75 > 100 µM | M14 > 100 µM | OVCAR-5 > 100 µM | TK-10 > 100 µM | COLO 205 98.9 µM | SK-MEL-2 > 100 µM | SK-OV-3 > 100 µM | U-251 > 100 µM | NCI-H226 > 100 µM | A549 > 100 µM | SF-539 > 100 µM

O[C@@H]1C[C@@H]2N[C@@](O)(C[C@@H]2O)[C@H]1O
inactive: NCI/ADR-RES > 100 µM | UACC-62 > 100 µM | LOX IMVI > 100 µM | HCC 2998 > 100 µM | MDA-MB-231 > 100 µM | HOP-92 > 100 µM | SF-295 > 100 µM | SNB-75 84.3 µM | M14 > 100 µM | OVCAR-5 > 100 µM | TK-10 > 100 µM | RXF 393 > 100 µM | COLO 205 > 100 µM | SK-OV-3 > 100 µM | U-251 > 100 µM | NCI-H226 > 100 µM | A549 > 100 µM | SF-539 > 100 µM
